Assay type in all cases: functional, cell-based
The target in assay [1] is T1, Free fatty acid receptor 3 (Homo sapiens, UniProt O14843).
T1 sequence (O14843 whole entry): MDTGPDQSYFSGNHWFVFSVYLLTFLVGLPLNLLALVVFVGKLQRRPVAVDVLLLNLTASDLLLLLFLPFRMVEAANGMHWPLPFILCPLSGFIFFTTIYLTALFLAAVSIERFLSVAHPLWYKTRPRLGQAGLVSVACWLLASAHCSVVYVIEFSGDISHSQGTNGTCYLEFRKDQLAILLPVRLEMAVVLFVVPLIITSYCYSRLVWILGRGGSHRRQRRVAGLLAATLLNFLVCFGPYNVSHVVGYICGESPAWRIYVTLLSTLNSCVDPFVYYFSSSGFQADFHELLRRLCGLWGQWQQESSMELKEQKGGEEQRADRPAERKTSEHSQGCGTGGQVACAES
Put plainly: Agonist activity at doxycyclin-induced GPR41 (unknown origin) overexpressed in HEK293 cells assessed as decrease in forskolin-induced cAMP level. On the technique in general: Changes in cAMP serve as a functional read-out for many G protein-coupled receptors.

The target in assay [2] is T2, Free fatty acid receptor 3 (Homo sapiens) (UniProt O14843).
T2 sequence (whole entry): T1 sequence (O14843 whole entry)
Put plainly: Agonist activity at doxycyclin-induced GPR41 (unknown origin) overexpressed in HEK293 cells assessed as decrease in forskolin-induced cAMP level at 1 uM.

The target of assay [3] is T2, Free fatty acid receptor 3 (Homo sapiens). Nature of the assay: Agonist activity at GPR41 (unknown origin) overexpressed in HEK293 cells assessed as decrease in forskolin-induced cAMP level.
Assay [4] deals with T3, Free fatty acid receptor 2 (Homo sapiens) (UniProt O15552).
T3 sequence (whole entry): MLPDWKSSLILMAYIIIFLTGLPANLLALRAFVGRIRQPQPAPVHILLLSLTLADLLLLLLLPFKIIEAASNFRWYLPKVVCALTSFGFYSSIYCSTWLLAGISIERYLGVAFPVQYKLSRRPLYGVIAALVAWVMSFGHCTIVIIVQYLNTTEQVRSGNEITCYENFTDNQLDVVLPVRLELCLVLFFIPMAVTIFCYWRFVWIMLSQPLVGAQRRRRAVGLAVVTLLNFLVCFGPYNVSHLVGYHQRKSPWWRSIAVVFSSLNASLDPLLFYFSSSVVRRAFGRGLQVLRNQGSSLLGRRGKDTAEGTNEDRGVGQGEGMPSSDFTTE
Nature of the assay: Agonist activity at GPR43 (unknown origin) overexpressed in HEK293 cells assessed as decrease in forskolin-induced cAMP level at 1 uM.

Assay [5] concerns the target T2, Free fatty acid receptor 3 (Homo sapiens). Put plainly: Antagonist activity at doxycyclin-induced GPR41 (unknown origin) overexpressed in HEK293 cells assessed as increase in forskolin/propionate-induced cAMP level at 1 uM.
Assay [6] has the same target. Nature of the assay: Agonist activity at doxycyclin-induced GPR41 (unknown origin) overexpressed in HEK293 cells assessed as decrease in forskolin-induced cAMP level at 30 uM.
The target is the same in assay [7]. Put plainly: Agonist activity at doxycyclin-induced GPR41 (unknown origin) overexpressed in HEK293 cells assessed as decrease in forskolin-induced cAMP level at 10 uM. The conditions noted are these: filed as agonist.

SMILES strings stand for the structures. Active and inactive are the calls of the source. The calls are words filed in the database; no cut-off is given here.

A word on the EC50: it is the midpoint of the concentration-response curve.

Regarding `CC1=C(C(=O)Nc2ccccc2C)C(c2ccc(-c3cc(F)c(F)c(F)c3)o2)C2=C(CCCC2=O)N1` (stereo unspecified), in assay [1], the EC50 was determined as 5890 nM. Moreover, the outcome in assay [2] (filed as agonist) was Active. The outcome in assay [3] and in assay [4] was inactive.
On to `CC1=C(C(=O)Nc2ccccc2C)C(c2ccc(-c3cccc(Cl)c3)o2)C2=C(CCCC2=O)N1` (stereo unspecified), for which the outcome in assay [5] was inactive.
Consider `CC1=C(C(=O)Nc2cc(Cl)ccc2Cl)C(c2ccc(-c3ccc(F)c(F)c3F)o2)C2=C(CCCC2=O)N1` (stereo unspecified), for which, in assay [1], the EC50 was determined as 447 nM. Also, the outcome in assay [3] and in assay [4] was inactive.
As for `CC1=C(C(=O)Nc2ccccc2C)C(c2ccc(-c3ccc(F)c(F)c3)o2)C2=C(CCCC2=O)N1` (stereo unspecified), in assay [1], the concentration for a half-maximal effect (EC50) is 3400 nM. The result in assay [2] (filed as agonist) was Active. For the same molecule, the result in assay [3] and in assay [4] was inactive.
For the molecule `CC1=C(C(=O)Nc2ccccc2C)C(c2ccc(-c3ccsc3)o2)C2=C(CCCC2=O)N1` (stereo unspecified), the result in assay [5] was inactive.
With `CC1=C(C(=O)Nc2ccccc2C)C(c2ccc(-c3ccccc3C(F)(F)F)o2)C2=C(CCCC2=O)N1` (stereo unspecified), the result in assay [5] was inactive.
The same measure, in the same setting: next, `CC1=C(C(=O)Nc2ccccc2C)C(c2ccc(-c3ccc(C)cc3)o2)C2=C(CCCC2=O)N1` (stereo unspecified): “inactive”.
`CC1=C(C(=O)Nc2ccccc2C)C(c2ccc(-c3cc(C)cc(C)c3)o2)C2=C(CCCC2=O)N1` (stereo unspecified): the outcome in assay [5] was inactive.
With `CC1=C(C(=O)Nc2ccccc2C)C(c2ccc(-c3ccccc3C#N)o2)C2=C(CCCC2=O)N1` (stereo unspecified), the outcome in assay [5] was inactive.
Take `CC1=C(C(=O)Nc2ccccc2C)C(c2ccc(-c3c(F)cccc3F)o2)C2=C(CCCC2=O)N1` (stereo unspecified): the outcome in assay [2] was inactive.
For the molecule `CC1=C(C(=O)Nc2ccccc2C)C(c2ccc(-c3ccccc3Cl)o2)C2=C(CCCC2=O)N1` (stereo unspecified), the result in assay [5] was inactive.
Regarding `CC1=C(C(=O)Nc2ccccc2C)C(c2ccc(-c3cccc(C(F)(F)F)c3)o2)C2=C(CCCC2=O)N1` (stereo unspecified), the result in assay [5] was inactive.
As to `CC1=C(C(=O)Nc2ccccc2C)C(c2ccc(-c3ccc(C(F)(F)F)cc3)o2)C2=C(CCCC2=O)N1` (stereo unspecified), the result in assay [2] (filed as agonist) was Active. Also, the result in assay [5] was inactive.
As to `CC1=C(C(=O)Nc2ccccc2C)C(c2ccc(-c3ccco3)o2)C2=C(CCCC2=O)N1` (stereo unspecified), the result in assay [5] was inactive.
Regarding `CC1=C(C(=O)Nc2ccccc2C)C(c2ccc(-c3cc(C(F)(F)F)cc(C(F)(F)F)c3)o2)C2=C(CCCC2=O)N1` (stereo unspecified), in assay [5], the outcome was inactive.
On the same count and under the same terms, the entry for `CC1=C(C(=O)Nc2ccccc2C)C(c2ccc(-c3cccc(F)c3)o2)C2=C(CCCC2=O)N1` (stereo unspecified) is “inactive”; for `COc1cccc(-c2ccc(C3C(C(=O)Nc4ccccc4C)=C(C)NC4=C3C(=O)CCC4)o2)c1` (stereo unspecified) it is “inactive”.
In the case of `CC1=C(C(=O)Nc2ccccc2C)C(c2ccc(-c3cc(F)cc(F)c3)o2)C2=C(CCCC2=O)N1` (stereo unspecified), the half-maximal effective concentration (EC50) in assay [1] stood at 679 nM. In assay [2] (filed as agonist), the outcome was Active. In addition, the outcome in assay [3], in assay [4] and in assay [5] was inactive.
For the molecule `COc1cc(OC)cc(-c2ccc(C3C(C(=O)Nc4ccccc4C)=C(C)NC4=C3C(=O)CCC4)o2)c1` (stereo unspecified), in assay [5], the outcome was inactive.
As for `CC1=C(C(=O)Nc2ccccc2C)C(c2ccc(-c3ccc(F)cc3F)o2)C2=C(CCCC2=O)N1` (stereo unspecified), the outcome in assay [2] (filed as agonist) was Active.
With `CC1=C(C(=O)Nc2cc(Cl)ccc2Cl)C(c2ccc(-c3cc(F)cc(F)c3)o2)C2=C(CCCC2=O)N1` (stereo unspecified), the result in assay [6] and in assay [3] was inactive.
In the case of `CC1=C(C(=O)Nc2cc(Cl)ccc2Cl)C(c2ccco2)C2=C(CCCC2=O)N1` (stereo unspecified), in assay [1], the 50% effective concentration (EC50) stood at 741 nM. Moreover, the result in assay [4] and in assay [5] was inactive.
Regarding `CC1=C(C(=O)Nc2ccccc2C)C(c2ccc(-c3ccccc3OC(F)(F)F)o2)C2=C(CCCC2=O)N1` (stereo unspecified), the outcome in assay [5] (filed as antagonist) was Active.
As for `CC1=C(C(=O)Nc2ccccc2C)C(c2ccc(-c3ccc(Cl)cc3)o2)C2=C(CCCC2=O)N1` (stereo unspecified), the outcome in assay [5] was inactive.
Consider `CC1=C(C(=O)Nc2ccccc2C)C(c2ccc(-c3cccc(C#N)c3)o2)C2=C(CCCC2=O)N1` (stereo unspecified), for which the result in assay [5] was inactive.
For `CC1=C(C(=O)Nc2ccccc2C)C(c2ccc(-c3ccc(F)cc3)o2)C2=C(CCCC2=O)N1` (stereo unspecified), in assay [5], the outcome was inactive.
In the case of `CC1=C(C(=O)Nc2ccccc2C)C(c2ccc(-c3ccccc3)o2)C2=C(CCCC2=O)N1` (stereo unspecified), the result in assay [7] was Active. The result in assay [5] was inactive.
`CC1=C(C(=O)Nc2ccccc2C)C(c2ccc(-c3ccccc3F)o2)C2=C(CCCC2=O)N1` (stereo unspecified): the result in assay [5] was inactive.
For the molecule `CC1=C(C(=O)Nc2ccccc2C)C(c2ccc(-c3cc(Cl)cc(Cl)c3)o2)C2=C(CCCC2=O)N1` (stereo unspecified), the outcome in assay [2] was inactive.
For the molecule `CC1=C(C(=O)Nc2cc(Cl)ccc2Cl)C(c2ccc(-c3ccc(F)c(F)c3)o2)C2=C(CCCC2=O)N1` (stereo unspecified), the result in assay [6] and in assay [3] was inactive.
Regarding `CC1=C(C(=O)Nc2ccccc2C)C(c2ccc(-c3ccc(F)c(F)c3F)o2)C2=C(CCCC2=O)N1` (stereo unspecified), the EC50 in assay [1] worked out at 5510 nM. Further, the result in assay [2] (filed as agonist) was Active. The outcome in assay [3] and in assay [4] was inactive.
As for `CCC(=O)O`, in assay [4] (filed as agonist), the result was Active. Further, the result in assay [5] was inactive.
In the case of `CC1=C(C(=O)Nc2cc(Cl)ccc2Cl)C(c2ccc(-c3cc(F)c(F)c(F)c3)o2)C2=C(CCCC2=O)N1` (stereo unspecified), the result in assay [6] and in assay [3] was inactive.

Values taken from ChEMBL document CHEMBL5550124, “Structure-activity relationship studies of tetrahydroquinolone derivatives as GPR41 modulators” (Bioorg Med Chem Lett, 2024).
